The subject of one assay is lysyl-LG adducts. The experiment in a line: Lysyl-LG adducts in gastric tissues of H. pylori-infected mice (LC/ESI/MS/MS). Format: in vivo. The note with it: EtSA 0.75% in water from one wk post-infection, 8 wk infection. The procedure: FIGS. 15A, 15B, and 15C are graphs showing C57BL/6 (A) or INS-GAS mice (B) were infected for 8 weeks with H. pylori PMSS1. Lysyl-LG adducts were measured in the gastric tissues by LC/ESI/MS/MS. *P<0.05. (C) Lysyl-LG adducts concentration was determined in AGS cells infected (plain bars) or not (open bars) with H. pylori PMSS1 for 24 h, in the presence or absence of EtSA. *P<0.05 vs. uninfected cells. § P<0.05 vs. infected cells without EtSA.
FIG. 17 is a graph showing reduction in the concentration of lysyl-levuglandin adducts in the stomachs of H. pylori infected mice treated with 2-hydroxybenzylamine for 8 weeks.
As discussed further in the Examples, the human gastric epithelial cell line AGS was infected with Hp PMSS1±10 mM EtSA. FVB/N insulin-gastrin (INS-GAS) mice and Mongolian gerbils were infected for 8 wk with Hp PMSS1 and 7.13, respectively; EtSA (0.75% in water) was given to animals beginning one wk post-infection. Lys-LG adducts, a marker of electrophile reactions, and EtSA were quantified by LC/EST/MS/MS. Histology was analyzed on H&E staining. DNA damage was evaluated by pH2AX staining. Hp colonization was quantified by culture. Mucosal immune responses were determined by RNA profiling and by Luminex assay. Mice were imaged using PET/CT with ^18F-FDG (inflammation marker) and ^18F—NaF (tumor marker). […]

For assay [1], the system named is LG-histone adducts in A549 cells. The experiment in a line: LG-lysyl adduct formation on histones in A549 cells (LC/ESI/MS/MS). Format: cell-based, human. The note with it: stimulated A549, 30, 300 or 1000 μM EtSA, 20 μM AA 1 h. The procedure:
FIGS. 11A, 11B, 11C, 11D, 11E, and 11F are a series of graphs showing that LG-lysine adducts of histones are found in cells and tissue, dependent on COX-2 activity. RAW264.7 mouse macrophage (A) and A549 human lung carcinoma (C) cells were stimulated to express COX-2, then given 20 μM arachidonic acid (AA) or vehicle. A subgroup of cells was preincubated 45 min with 50 μM indomethacin. As a measure of COX activity, PGE2 was determined by GC/MS from cell media prior to lysis (B and D). Nuclei were isolated, and histones were extracted and digested to individual amino acids prior to LC/EST/MS/MS analysis. *, p<0.05; ***, p<0.001 by ANOVA followed by Tukey's post-test (n≥5). (E). Histones were extracted from nuclei of rat liver, and analyzed as above for LG-lactam adduct. COX-2 protein was analyzed by Western blotting and plotted against lactam adduct levels. Each point corresponds to 1 liver, and shown is the line of regression (r^2=0.7237). Pearson r=0.8507; two-tailed p=0.0152. […]
(A). […] Histone proteins were analyzed by LC/ESI/MS/MS for LG-lysyl lactam adduct, n=2. (B) Stimulated A549 cells were pretreated with 30, 300, or 1000 μM EtSA prior to 1 h with 20 μM AA, and histones analyzed for LG-lysyl adduct. *, p<0.05 by one-way ANOVA followed by Dunnett's multiple comparisons post-test (n=3-5). […] Media was analyzed by GC/MS for PGE2 (n=3). […]

For the compound `CCc1ccc(O)c(CN)c1` [EtHOBA, 5-ethyl-2-hydroxybenzylamine], the “Lys-LG adducts in infected mice” value in the assay with lysyl-LG adducts is “completely inhibited”. Besides, the LG-histone adduct formation result in assay [1] is reported as “inhibited”.

The record behind these values is patent publication US11696903B2, “Compounds and methods for scavenging dicarbonyl electrophiles” (VANDERBILT UNIVERSITY, priority 2019, dated 2023).
